pIC50: −log10 of the molar value.
Legend:
Type in all cases: biochemical
[1] = molecular target: T1, ITK (Homo sapiens, UniProt Q08881); assay: ITK IC50 kinase inhibition assay
T1 sequence (Q08881 1-620): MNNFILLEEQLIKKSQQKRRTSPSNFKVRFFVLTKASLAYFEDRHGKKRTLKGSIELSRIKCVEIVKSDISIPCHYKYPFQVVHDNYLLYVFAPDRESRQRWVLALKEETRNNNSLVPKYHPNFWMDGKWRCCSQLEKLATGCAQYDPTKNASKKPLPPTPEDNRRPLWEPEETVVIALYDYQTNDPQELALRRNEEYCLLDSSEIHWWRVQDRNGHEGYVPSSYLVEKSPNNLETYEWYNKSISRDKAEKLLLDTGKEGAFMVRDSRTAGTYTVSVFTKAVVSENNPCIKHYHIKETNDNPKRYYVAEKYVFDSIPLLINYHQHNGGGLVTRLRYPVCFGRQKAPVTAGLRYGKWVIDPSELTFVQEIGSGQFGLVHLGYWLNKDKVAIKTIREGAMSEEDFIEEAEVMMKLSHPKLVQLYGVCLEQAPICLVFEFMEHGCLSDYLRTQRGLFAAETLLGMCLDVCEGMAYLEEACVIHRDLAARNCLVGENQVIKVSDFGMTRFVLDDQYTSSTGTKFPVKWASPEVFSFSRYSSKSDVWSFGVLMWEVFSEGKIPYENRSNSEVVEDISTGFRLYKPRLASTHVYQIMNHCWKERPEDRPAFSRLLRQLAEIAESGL

[2] = molecular target: BTK (Homo sapiens, UniProt Q06187); assay: BTK IC50 kinase inhibition assay
Sequence of BTK (Q06187 whole entry): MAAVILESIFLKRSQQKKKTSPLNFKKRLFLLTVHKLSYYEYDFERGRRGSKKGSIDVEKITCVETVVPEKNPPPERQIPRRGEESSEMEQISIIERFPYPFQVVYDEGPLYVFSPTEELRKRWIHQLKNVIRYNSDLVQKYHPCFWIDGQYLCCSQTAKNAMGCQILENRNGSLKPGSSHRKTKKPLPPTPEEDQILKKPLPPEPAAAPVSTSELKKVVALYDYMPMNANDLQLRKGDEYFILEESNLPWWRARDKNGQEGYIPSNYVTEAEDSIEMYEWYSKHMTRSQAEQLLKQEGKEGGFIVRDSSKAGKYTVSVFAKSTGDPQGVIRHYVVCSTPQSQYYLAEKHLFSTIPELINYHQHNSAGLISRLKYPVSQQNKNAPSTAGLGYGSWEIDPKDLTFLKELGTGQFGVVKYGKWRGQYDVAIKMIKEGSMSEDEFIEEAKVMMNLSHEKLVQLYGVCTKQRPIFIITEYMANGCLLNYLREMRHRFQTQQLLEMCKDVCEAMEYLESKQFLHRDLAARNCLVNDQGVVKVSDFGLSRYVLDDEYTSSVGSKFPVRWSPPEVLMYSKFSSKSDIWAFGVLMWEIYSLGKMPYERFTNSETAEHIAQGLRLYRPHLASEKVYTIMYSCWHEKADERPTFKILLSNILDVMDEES

[3] = molecular target: T2, JAK3 (Homo sapiens, UniProt P52333); assay: JAK3 IC50 kinase inhibition assay
T2 sequence (P52333 1-1124): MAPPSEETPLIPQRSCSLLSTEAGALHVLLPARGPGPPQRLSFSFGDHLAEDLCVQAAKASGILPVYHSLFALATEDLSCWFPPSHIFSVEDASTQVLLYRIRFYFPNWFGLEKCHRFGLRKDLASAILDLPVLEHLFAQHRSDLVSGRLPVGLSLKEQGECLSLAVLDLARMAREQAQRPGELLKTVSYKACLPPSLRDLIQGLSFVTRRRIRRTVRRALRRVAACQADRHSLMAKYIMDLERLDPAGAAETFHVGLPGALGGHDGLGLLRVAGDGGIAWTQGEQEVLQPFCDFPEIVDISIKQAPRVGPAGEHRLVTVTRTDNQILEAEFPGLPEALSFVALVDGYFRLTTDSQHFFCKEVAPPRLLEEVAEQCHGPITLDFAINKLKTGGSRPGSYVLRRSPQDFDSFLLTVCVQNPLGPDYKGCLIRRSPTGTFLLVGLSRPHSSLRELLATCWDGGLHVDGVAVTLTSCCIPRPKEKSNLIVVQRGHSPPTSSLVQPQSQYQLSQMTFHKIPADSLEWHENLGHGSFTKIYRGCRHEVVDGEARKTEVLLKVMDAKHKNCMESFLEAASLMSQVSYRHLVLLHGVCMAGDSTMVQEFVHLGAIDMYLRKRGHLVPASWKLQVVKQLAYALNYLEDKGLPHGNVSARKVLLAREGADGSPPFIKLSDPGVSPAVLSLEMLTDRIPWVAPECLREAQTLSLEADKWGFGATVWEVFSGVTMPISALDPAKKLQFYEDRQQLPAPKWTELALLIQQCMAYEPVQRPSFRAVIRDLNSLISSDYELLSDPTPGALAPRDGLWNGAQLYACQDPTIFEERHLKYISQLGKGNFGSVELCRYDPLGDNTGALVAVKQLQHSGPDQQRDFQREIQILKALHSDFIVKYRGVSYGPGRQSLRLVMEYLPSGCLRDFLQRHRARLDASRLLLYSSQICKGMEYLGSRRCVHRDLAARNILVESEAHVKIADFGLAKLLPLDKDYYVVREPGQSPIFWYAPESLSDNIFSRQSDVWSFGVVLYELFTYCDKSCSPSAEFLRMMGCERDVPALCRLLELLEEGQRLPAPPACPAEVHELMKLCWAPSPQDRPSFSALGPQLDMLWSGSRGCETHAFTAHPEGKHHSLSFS

[4] = molecular target: T3, TXK (Homo sapiens, UniProt P42681); assay: TXK IC50 kinase inhibition assay
T3 sequence (P42681 1-527): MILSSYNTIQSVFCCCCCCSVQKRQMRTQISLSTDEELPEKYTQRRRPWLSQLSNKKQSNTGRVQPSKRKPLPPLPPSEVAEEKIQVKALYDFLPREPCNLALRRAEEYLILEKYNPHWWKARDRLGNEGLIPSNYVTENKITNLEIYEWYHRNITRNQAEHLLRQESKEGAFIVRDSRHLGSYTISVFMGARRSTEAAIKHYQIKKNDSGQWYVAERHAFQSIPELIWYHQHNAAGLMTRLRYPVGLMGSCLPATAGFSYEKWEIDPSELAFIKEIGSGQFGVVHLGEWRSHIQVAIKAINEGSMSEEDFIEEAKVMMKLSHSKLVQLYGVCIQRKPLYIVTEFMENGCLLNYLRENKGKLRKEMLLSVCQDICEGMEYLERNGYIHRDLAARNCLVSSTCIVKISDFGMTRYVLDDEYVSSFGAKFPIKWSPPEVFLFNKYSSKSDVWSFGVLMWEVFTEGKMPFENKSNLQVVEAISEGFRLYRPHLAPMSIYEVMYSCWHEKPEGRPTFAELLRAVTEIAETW

Row | Structure (SMILES) | pIC50 [1] | pIC50 [2] | pIC50 [3] | pIC50 [4]
1 | C=CC(=O)N1CCC[C@@H](n2nc(-c3cccc(Oc4ccccc4)c3)c3cncnc32)C1 [Compound A1, (R)-1-(3-(3-(3-phenoxyphenyl)-1H-pyrazolo[3,4-d]pyrimidin-1-yl)piperidin-1-yl)prop-2-en-1-one] | < 6.30 | > 7.00 | < 6.30 | 6.30 to 7.00
2 | C=CC(=O)N1CCC[C@@H](n2nc(-c3ccc(Oc4ccccc4)cc3F)c3cncnc32)C1 [Compound A2, (R)-1-(3-(3-(2-fluoro-4-phenoxyphenyl)-1H-pyrazolo[3,4-d]pyrimidin-1-yl)piperidin-1-yl)prop-2-en-1-one] | < 6.30 | > 7.00 | 6.30 to 7.00 | > 7.00
3 | C=CC(=O)N1CCC[C@@H](n2nc(-c3ccc(Oc4ccccc4)c(C)c3)c3cncnc32)C1 [Compound A5, (R)-1-(3-(3-(3-methyl-4-phenoxyphenyl)-1H-pyrazolo[3,4-d]pyrimidin-1-yl)piperidin-1-yl)prop-2-en-1-one] | < 6.30 | > 7.00 | < 6.30 | 6.30 to 7.00
4 | C=CC(=O)N1CC[C@@H](n2nc(-c3ccc(Oc4ccccc4)cc3)c3cncnc32)C1 [Compound A6, (R)-1-(3-(3-(4-phenoxyphenyl)-1H-pyrazolo[3,4-d]pyrimidin-1-yl)pyrrolidin-1-yl)prop-2-en-1-one] | < 6.30 | > 7.00 | < 6.30 | > 7.00
5 | C=CC(=O)N1CCC[C@H]1Cn1nc(-c2ccc(Oc3ccccc3)cc2)c2cncnc21 [Compound A8, (S)-1-(2-((3-(4-phenoxyphenyl)-1H-pyrazolo[3,4-d]pyrimidin-1-yl)methyl)pyrrolidin-1-yl)prop-2-en-1-one] | < 6.30 | > 7.00 | < 6.30 | > 7.00
6 | C=CC(=O)N1CCC[C@@H](n2nc(-c3ccc(Oc4ccccc4)cc3)c3cncnc32)C1 [Compound A9, (R)-1-(3-(3-(4-phenoxyphenyl)-1H-pyrazolo[3,4-d]pyrimidin-1-yl)piperidin-1-yl)prop-2-en-1-one] | < 6.30 | > 7.00 | < 6.30 | > 7.00
7 | C=CC(=O)N1CC(n2nc(-c3ccc(Oc4ccccc4)cc3)c3cncnc32)C1 [Compound A13, 1-(3-(3-(4-phenoxyphenyl)-1H-pyrazolo[3,4-d]pyrimidin-1-yl)azetidin-1-yl)prop-2-en-1-one] | < 6.30 | 6.30 to 7.00 | < 6.30 | 6.30 to 7.00
8 | C=CC(=O)N1CC[C@@H](Cn2nc(-c3ccc(Oc4ccccc4)cc3)c3cncnc32)C1 [Compound A14, (R)-1-(3-((3-(4-phenoxyphenyl)-1H-pyrazolo[34-d]pyrimidin-1-yl)methyl)pyrrolidin-1-yl)prop-2-en-1-one] | < 6.30 | 6.30 to 7.00 | < 6.30 | 6.30 to 7.00
9 | C=CC(=O)N1CC[C@H](Cn2nc(-c3ccc(Oc4ccccc4)cc3)c3cncnc32)C1 [Compound A15, (S)-1-(3-((3-(4-phenoxyphenyl)-1H-pyrazolo[3,4-d]pyrimidin-1-yl)methyl)pyrrolidin-1-yl)prop-2-en-1-one] | < 6.30 | > 7.00 | < 6.30 | 6.30 to 7.00
10 | C=CC(=O)N1CC[C@@H](n2nc(-c3ccc(Oc4ccccc4)cc3F)c3cncnc32)C1 [Compound A17, (R)-1-(3-(3-(2-fluoro-4-phenoxyphenyl)-1H-pyrazolo[3,4-d]pyrimidin-1-yl)pyrrolidin-1-yl)prop-2-en-1-one] | < 6.30 | > 7.00 | < 6.30 | > 7.00
11 | CC#CC(=O)N1CC[C@@H](n2nc(-c3ccc(Oc4ccccc4)cc3)c3cncnc32)C1 [Compound A18, (R)-1-(3-(3-(4-phenoxyphenyl)-1H-pyrazolo[3,4-d]pyrimidin-1-yl)pyrrolidin-1-yl)but-2-yn-1-one] | < 6.30 | 6.30 to 7.00 | < 6.30 | < 6.30
12 | C=CC(=O)N1CCC[C@H]1Cn1nc(-c2ccc(Oc3ccccc3)cc2F)c2cncnc21 [Compound A19, (S)-1-(2-((3-(2-fluoro-4-phenoxyphenyl)-1H-pyrazolo[3,4-d]pyrimidin-1-yl)methyl)pyrrolidin-1-yl)prop-2-en-1-one] | < 6.30 | > 7.00 | < 6.30 | > 7.00

Now from value to compound:

Row | pIC50 [1] | pIC50 [2] | pIC50 [3] | pIC50 [4] | Structure (SMILES)
13 | < 6.30 | > 7.00 | < 6.30 | > 7.00 | C=CC(=O)N1CCC[C@@H](n2nc(-c3ccc(Oc4ccccc4)c(F)c3)c3cncnc32)C1 [Compound A3, (R)-1-(3-(3-(3-fluoro-4-phenoxyphenyl)-1H-pyrazolo[3,4-d]pyrimidin-1-yl)piperidin-1-yl)prop-2-en-1-one]
14 | < 6.30 | > 7.00 | < 6.30 | > 7.00 | C=CC(=O)N1CCC[C@@H](n2nc(-c3ccc(Oc4ccccc4)cc3C)c3cncnc32)C1 [Compound A4, (R)-1-(3-(3-(2-methyl-4-phenoxyphenyl)-1H-pyrazolo[3,4-d]pyrimidin-1-yl)piperidin-1-yl)prop-2-en-1-one]
15 | < 6.30 | > 7.00 | < 6.30 | 6.30 to 7.00 | C=CC(=O)N1CCC[C@@H]1Cn1nc(-c2ccc(Oc3ccccc3)cc2)c2cncnc21 [Compound A7, (R)-1-(2-((3-(4-phenoxyphenyl)-1H-pyrazolo[3,4-d]pyrimidin-1-yl)methyl)pyrrolidin-1-yl)prop-2-en-1-one]
16 | < 6.30 | > 7.00 | < 6.30 | 6.30 to 7.00 | C=CC(=O)N1CC[C@H](n2nc(-c3ccc(Oc4ccccc4)cc3)c3cncnc32)C1 [Compound A12, (S)-1-(3-(3-(4-phenoxyphenyl)-1H-pyrazolo[3,4-d]pyrimidin-1-yl)pyrrolidin-1-yl)prop-2-en-1-one]
17 | < 6.30 | < 6.30 | < 6.30 | < 6.30 | CC#CC(=O)N1CCC[C@@H](n2nc(-c3ccc(Oc4ccccc4)cc3)c3cncnc32)C1 [Compound A16, (R)-1-(3-(3-(4-phenoxyphenyl)-1H-pyrazolo[3,4-d]pyrimidin-1-yl)piperidin-1-yl)but-2-yn-1-one]
18 | < 6.30 | > 7.00 | < 6.30 | < 6.30 | CC#CC(=O)N1CCC[C@H]1Cn1nc(-c2ccc(Oc3ccccc3)cc2F)c2cncnc21 [Compound A20, (S)-1-(2-((3-(2-fluoro-4-phenoxyphenyl)-1H-pyrazolo[3,4-d]pyrimidin-1-yl)methyl)pyrrolidin-1-yl)but-2-yn-1-one]
